Measurements from paper PMC9127186, “Molecular Basis Underlying Hepatobiliary and Renal Excretion of Phenolic Acids of Salvia miltiorrhiza Roots (Danshen)” (Frontiers in Pharmacology, 2022).

Columns and labels:
[1] = biological target: T1, human BCRP (Homo sapiens, UniProt Q9UNQ0); test: Vesicular transport assay, inside-out membrane vesicles expressing human BCRP; details: 10 min
T1 sequence (Q9UNQ0 1-655): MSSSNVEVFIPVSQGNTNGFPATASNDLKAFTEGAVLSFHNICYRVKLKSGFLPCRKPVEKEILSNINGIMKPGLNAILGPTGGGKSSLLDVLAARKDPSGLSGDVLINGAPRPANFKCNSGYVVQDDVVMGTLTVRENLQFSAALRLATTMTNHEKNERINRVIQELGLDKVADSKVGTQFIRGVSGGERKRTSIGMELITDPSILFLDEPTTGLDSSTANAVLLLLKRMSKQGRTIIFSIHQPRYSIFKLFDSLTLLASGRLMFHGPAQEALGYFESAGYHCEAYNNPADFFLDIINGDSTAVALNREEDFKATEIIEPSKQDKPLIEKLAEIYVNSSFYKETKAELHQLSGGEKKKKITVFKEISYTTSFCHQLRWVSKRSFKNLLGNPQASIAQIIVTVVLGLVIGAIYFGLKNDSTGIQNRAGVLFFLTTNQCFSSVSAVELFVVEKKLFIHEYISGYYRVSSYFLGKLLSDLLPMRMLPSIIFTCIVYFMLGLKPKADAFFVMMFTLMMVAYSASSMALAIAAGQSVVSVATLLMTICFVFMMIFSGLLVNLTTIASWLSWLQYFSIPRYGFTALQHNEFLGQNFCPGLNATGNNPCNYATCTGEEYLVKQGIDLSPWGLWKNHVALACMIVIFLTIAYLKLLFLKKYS
Method: (§1) Inside-out membrane vesicles (5 mg protein/mL), prepared from insect cells expressing human multidrug resistance-associated protein (MRP) 2, MRP3, MRP4, breast cancer resistance protein (BCRP), bile salt export pump (BSEP), and multidrug resistance protein (MDR) one and rat Mrp2, Mrp4, Bcrp, and Bsep, and vesicles (5 mg protein/mL; prepared from the insect cells expressing no ABC transporter; serving as negative control) were obtained from Genomembrane (Kanazawa, Japan).
(§2) The test Danshen compounds at 100 µM final concentration were separately incubated with the membrane vesicles for 10 min. Buffer C (50 mM MOPS-tris, 70 mM KCl, 7.5 mM MgCl2, pH 7.0) was used for preincubation and incubation, while buffer D (40 mM MOPS-tris, 70 mM KCl, pH 7.0) was used for vesicle washing. The transport rate (pmol/mg protein/min) of the test Danshen compound was calculated using Equation (2): Transport=(CV×VV)/T/WV (2) where C V, V V, T, and W V represent concentration of the compound in vesicular lysates supernatant (μM), volume of the lysates (μL), incubation time (10 min), and amount of vesicle protein amount per well (0.05 mg), respectively. Differential transport of the test Danshen compound between ATP-containing vesicles and AMP-containing vesicles was defined as net transport ratio (TransportATP/TransportAMP ratio). […] All the incubation samples were analyzed by liquid chromatography/mass spectrometry.

[2] = biological target: human BSEP (Homo sapiens, UniProt O95342); test: Vesicular transport assay, inside-out membrane vesicles expressing human BSEP; details: 10 min
Chain of human BSEP (O95342 whole entry): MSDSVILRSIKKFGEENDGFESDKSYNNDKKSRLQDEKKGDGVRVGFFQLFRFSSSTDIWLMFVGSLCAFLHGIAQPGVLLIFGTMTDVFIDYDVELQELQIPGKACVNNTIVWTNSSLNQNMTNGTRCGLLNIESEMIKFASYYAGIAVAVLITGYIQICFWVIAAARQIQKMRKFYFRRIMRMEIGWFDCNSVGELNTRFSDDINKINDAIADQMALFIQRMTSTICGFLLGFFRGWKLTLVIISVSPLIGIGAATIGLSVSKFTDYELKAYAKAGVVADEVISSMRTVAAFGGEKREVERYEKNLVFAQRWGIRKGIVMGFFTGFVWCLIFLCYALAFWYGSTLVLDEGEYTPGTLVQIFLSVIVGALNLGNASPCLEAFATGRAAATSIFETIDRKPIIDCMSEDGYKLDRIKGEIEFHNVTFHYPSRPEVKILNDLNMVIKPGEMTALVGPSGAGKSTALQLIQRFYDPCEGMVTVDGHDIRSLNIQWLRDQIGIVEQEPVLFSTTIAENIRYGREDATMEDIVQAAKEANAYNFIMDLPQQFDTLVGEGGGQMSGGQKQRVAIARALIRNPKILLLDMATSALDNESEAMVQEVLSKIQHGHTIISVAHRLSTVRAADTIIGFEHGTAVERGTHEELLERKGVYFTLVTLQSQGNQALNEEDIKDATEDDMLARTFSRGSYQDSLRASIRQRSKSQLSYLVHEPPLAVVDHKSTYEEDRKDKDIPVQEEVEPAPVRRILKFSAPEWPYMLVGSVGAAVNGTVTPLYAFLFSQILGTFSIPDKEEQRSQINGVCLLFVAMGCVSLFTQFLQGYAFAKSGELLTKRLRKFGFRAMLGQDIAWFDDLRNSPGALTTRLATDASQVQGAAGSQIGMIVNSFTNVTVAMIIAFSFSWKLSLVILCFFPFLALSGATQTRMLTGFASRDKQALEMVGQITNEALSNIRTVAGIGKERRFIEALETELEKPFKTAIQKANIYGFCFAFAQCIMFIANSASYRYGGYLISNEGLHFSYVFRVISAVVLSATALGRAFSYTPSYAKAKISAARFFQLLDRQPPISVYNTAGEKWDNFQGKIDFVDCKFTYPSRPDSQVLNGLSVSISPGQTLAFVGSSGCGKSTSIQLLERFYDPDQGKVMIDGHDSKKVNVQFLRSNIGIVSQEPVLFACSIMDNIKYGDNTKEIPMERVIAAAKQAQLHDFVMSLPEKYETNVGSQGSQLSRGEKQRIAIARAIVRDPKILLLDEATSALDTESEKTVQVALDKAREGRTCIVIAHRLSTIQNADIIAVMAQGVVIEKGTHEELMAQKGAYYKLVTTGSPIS
Method: as §1, §2

[3] = biological target: T2, human MRP4 (Homo sapiens, UniProt O15439); test: Vesicular transport assay, inside-out membrane vesicles expressing human MRP4; details: for TransportATP/TransportAMP ratio (net transport ratio): 10 min
T2 sequence (O15439 1-1325): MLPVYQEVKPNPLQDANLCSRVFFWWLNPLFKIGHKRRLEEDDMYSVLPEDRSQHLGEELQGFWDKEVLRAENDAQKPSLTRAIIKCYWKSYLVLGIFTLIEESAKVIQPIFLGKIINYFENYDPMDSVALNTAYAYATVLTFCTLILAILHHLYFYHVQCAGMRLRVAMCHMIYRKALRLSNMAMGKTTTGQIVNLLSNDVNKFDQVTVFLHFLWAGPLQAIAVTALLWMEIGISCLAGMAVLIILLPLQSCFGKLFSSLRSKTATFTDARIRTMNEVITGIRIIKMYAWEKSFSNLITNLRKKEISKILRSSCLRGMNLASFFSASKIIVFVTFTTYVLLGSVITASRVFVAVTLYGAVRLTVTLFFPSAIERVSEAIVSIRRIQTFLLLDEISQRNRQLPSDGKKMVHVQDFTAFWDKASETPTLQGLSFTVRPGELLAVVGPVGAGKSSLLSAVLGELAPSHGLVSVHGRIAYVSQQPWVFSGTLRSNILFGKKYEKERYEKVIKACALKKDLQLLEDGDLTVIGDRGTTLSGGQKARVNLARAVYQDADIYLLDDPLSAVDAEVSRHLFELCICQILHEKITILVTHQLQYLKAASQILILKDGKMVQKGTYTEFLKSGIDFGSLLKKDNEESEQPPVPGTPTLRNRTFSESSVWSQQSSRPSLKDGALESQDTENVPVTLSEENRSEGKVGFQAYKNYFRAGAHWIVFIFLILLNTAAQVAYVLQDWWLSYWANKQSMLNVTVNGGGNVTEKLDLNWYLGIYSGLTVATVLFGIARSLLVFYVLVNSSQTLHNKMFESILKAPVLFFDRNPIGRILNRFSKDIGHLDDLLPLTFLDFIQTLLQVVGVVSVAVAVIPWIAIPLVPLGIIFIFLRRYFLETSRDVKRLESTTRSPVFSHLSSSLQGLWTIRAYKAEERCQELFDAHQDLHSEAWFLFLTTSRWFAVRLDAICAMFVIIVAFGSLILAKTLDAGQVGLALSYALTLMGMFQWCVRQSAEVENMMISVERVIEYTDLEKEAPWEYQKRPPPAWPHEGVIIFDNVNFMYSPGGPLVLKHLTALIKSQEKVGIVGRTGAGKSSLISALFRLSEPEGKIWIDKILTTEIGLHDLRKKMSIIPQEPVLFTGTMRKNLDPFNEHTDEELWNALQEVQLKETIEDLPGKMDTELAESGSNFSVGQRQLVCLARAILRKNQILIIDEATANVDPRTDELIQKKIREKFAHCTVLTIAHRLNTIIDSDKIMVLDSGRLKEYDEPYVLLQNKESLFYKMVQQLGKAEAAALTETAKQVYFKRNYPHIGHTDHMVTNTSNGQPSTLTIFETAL
Method: as §1, §2

[4] = biological target: human MRP2 (Homo sapiens, UniProt Q92887); test: Vesicular transport assay, inside-out membrane vesicles expressing human MRP2; details: for TransportATP/TransportAMP ratio (net transport ratio): 10 min
Chain of human MRP2 (Q92887 whole entry): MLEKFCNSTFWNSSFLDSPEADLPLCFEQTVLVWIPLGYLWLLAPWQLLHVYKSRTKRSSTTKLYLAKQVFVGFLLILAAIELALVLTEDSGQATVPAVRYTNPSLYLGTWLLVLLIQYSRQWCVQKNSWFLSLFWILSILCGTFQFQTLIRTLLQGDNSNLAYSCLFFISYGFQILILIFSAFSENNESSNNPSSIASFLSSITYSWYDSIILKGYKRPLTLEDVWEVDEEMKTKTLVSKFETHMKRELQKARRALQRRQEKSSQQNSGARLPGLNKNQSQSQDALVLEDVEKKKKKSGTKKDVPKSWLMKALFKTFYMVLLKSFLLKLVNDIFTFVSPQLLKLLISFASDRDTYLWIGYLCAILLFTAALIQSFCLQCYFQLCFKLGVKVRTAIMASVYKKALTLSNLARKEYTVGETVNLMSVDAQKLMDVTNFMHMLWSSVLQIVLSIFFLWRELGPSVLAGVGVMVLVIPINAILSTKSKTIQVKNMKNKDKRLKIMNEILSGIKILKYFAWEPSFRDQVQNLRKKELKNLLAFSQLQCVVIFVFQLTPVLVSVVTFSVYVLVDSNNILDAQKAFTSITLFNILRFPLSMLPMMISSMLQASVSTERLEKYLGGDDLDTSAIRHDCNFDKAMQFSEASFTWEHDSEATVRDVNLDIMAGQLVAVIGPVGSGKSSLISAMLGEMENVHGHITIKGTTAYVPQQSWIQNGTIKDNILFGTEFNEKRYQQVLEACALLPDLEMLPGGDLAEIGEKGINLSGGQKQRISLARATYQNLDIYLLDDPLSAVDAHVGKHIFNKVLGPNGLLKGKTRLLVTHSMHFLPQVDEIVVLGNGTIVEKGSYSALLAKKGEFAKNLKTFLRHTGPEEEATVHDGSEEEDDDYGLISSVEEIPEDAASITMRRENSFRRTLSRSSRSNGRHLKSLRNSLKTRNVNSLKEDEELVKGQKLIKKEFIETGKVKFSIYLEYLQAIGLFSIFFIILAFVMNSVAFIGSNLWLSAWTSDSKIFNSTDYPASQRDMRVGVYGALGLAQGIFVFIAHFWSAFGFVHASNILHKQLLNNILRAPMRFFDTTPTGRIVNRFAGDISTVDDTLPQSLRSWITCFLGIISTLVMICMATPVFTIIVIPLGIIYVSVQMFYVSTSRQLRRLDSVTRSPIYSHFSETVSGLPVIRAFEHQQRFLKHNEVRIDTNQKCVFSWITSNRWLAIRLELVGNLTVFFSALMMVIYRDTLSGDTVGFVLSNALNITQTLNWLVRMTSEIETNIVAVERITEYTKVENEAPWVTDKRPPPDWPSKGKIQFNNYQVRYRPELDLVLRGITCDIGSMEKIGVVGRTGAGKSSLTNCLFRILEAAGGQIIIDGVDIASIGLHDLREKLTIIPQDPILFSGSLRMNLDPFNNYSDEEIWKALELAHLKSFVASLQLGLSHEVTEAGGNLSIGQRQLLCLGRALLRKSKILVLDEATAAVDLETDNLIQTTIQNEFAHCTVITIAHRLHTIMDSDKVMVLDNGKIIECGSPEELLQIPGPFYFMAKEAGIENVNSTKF
Method: as §1, §2

[5] = Danshen phenolic acid at 100 μM final concentration, human BCRP vesicles
[6] = Danshen phenolic acid at 100 μM final concentration, human BSEP vesicles
[7] = Danshen phenolic acid at 100 μM final concentration, human MRP4 vesicles
[8] = Danshen phenolic acid at 100 μM final concentration, human MRP2 vesicles

Q: For `O=C(O)Cc1c(/C=C/C(=O)O[C@H](Cc2ccc(O)c(O)c2)C(=O)O)ccc(O)c1O` [Salvianolic acid D, salvianolic acid D], which “TransportATP/TransportAMP ratio (net transport ratio)” value (“TransportATP/TransportAMP ratio” for short) [1, 5] is on record?
A: 2.22 ± 0.61

Q: And the “TransportATP/TransportAMP ratio” value [2, 6]?
A: 1.19 ± 0.35

Q: And the “substrate of human MRP4” value [3]?
A: substrate

Q: What about the “TransportATP/TransportAMP ratio” value [3, 7] of the same compound?
A: 5.27 ± 0.51

Q: And the “TransportATP/TransportAMP ratio” value [4, 8]?
A: 1.51 ± 0.73

Q: What does the source list for `O=C(/C=C/c1ccc(O)c2c1[C@H](C(=O)O)[C@@H](c1ccc(O)c(O)c1)O2)O[C@H](Cc1ccc(O)c(O)c1)C(=O)O` [Lithospermic acid, lithospermic acid]?
A: TransportATP/TransportAMP ratio (net transport ratio) [1, 5]: 1.12 ± 0.31; TransportATP/TransportAMP ratio (net transport ratio) [2, 6]: 0.83 ± 0.20; TransportATP/TransportAMP ratio (net transport ratio) [3, 7]: 1.36 ± 0.14; substrate of human MRP2 [4]: substrates; TransportATP/TransportAMP ratio (net transport ratio) [4, 8]: 5.02 ± 1.67

Q: salvianolic acid B was tested. Which “TransportATP/TransportAMP ratio” value [1, 5] did it give?
A: 1.54 ± 0.78

Q: What about the “TransportATP/TransportAMP ratio” value [2, 6] of the same compound?
A: 1.43 ± 0.32

Q: What about the “TransportATP/TransportAMP ratio” value [3, 7] of the same compound?
A: 1.99 ± 0.06

Q: What about the “substrate of human MRP2” value [4] of the same compound?
A: substrates

Q: What about the “TransportATP/TransportAMP ratio” value [4, 8] of the same compound?
A: 6.21 ± 1.32

Q: For `O=C(O)c1ccc(O)c(O)c1` [Protocatechuic acid, protocatechuic acid], which “TransportATP/TransportAMP ratio” value [1, 5] is on record?
A: 1.04 ± 0.19

Q: What about the “TransportATP/TransportAMP ratio” value [2, 6] of the same compound?
A: 0.99 ± 0.21

Q: And the “TransportATP/TransportAMP ratio” value [3, 7]?
A: 1.25 ± 0.14

Q: And the “TransportATP/TransportAMP ratio” value [4, 8]?
A: 0.94 ± 0.31

Q: Which “TransportATP/TransportAMP ratio” value ([1]; human, not told, 100 μM, pH 7) does the source give for `O=C(/C=C/c1ccc(O)c(O)c1/C=C/c1ccc(O)c(O)c1)O[C@H](Cc1ccc(O)c(O)c1)C(=O)O` [Salvianolic acid A, salvianolic acid A] here?
A: 1.12 ± 0.35

Q: What about the “TransportATP/TransportAMP ratio” value ([2]; human, 100 μM, pH 7) of the same compound?
A: 1.32 ± 0.26

Q: And the “TransportATP/TransportAMP ratio” value ([3]; human, 100 μM, pH 7)?
A: 1.56 ± 0.05

Q: What about the “TransportATP/TransportAMP ratio” value ([4]; human, 100 μM, pH 7) of the same compound?
A: 1.42 ± 0.31

Q: For `O=C(/C=C/c1ccc(O)c(O)c1)O[C@H](Cc1ccc(O)c(O)c1)C(=O)O` [Rosmarinic acid, rosmarinic acid], which “TransportATP/TransportAMP ratio” value ([1]; human, not told, 100 μM, pH 7) is on record?
A: 1.12 ± 0.55

Q: What about the “TransportATP/TransportAMP ratio” value ([2]; human, 100 μM, pH 7) of the same compound?
A: 1.03 ± 0.09

Q: What about the “TransportATP/TransportAMP ratio” value ([3]; human, 100 μM, pH 7) of the same compound?
A: 1.99 ± 0.08

Q: And the “TransportATP/TransportAMP ratio” value ([4]; human, 100 μM, pH 7)?
A: 1.13 ± 0.34
